In brackets after ≈: the same amount, converted by molar mass. Where two headings read alike, the source gives them in different places.
Legend:
MRSA = conditions: literature ref 20; cited from earlier work
[1] = system: murine macrophage cell line J774; assay: Cytotoxicity assay with J774 macrophages; conditions: for IC50: Mus musculus
[2] = system: replicating stage M. tuberculosis (Mtb); assay: MIC against replicating Mtb; assay type: cell-based, Mycobacterium tuberculosis; conditions: for MIC: Mycobacterium tuberculosis
S. pyogenes = conditions: reported in literature; cited from earlier work
S. typhimurium = conditions: reported in literature; cited from earlier work
α-glucosidase = conditions: literature ref 12; read-out: α-glucosidase inhibition activity IC50; cited from earlier work
zebrafish embryos = conditions: reported in literature; cited from earlier work
M. abscessus (Mab) = M. abscessus (Mab) inhibition; assay type: cell-based, Mycobacterium abscessus; conditions: Table 10; pure compounds
C. albicans = conditions: reported in literature; cited from earlier work
E. co/i = conditions: reported in literature; cited from earlier work
S. aureus = conditions: reported in literature; cited from earlier work
[3] = target: acetylcholinesterase (AchE) (Homo sapiens, UniProt P22303); conditions: literature ref 13; read-out: IC50 against acetylcholinesterase (AchE); cited from earlier work
Chain of acetylcholinesterase (AchE) (P22303 32-614): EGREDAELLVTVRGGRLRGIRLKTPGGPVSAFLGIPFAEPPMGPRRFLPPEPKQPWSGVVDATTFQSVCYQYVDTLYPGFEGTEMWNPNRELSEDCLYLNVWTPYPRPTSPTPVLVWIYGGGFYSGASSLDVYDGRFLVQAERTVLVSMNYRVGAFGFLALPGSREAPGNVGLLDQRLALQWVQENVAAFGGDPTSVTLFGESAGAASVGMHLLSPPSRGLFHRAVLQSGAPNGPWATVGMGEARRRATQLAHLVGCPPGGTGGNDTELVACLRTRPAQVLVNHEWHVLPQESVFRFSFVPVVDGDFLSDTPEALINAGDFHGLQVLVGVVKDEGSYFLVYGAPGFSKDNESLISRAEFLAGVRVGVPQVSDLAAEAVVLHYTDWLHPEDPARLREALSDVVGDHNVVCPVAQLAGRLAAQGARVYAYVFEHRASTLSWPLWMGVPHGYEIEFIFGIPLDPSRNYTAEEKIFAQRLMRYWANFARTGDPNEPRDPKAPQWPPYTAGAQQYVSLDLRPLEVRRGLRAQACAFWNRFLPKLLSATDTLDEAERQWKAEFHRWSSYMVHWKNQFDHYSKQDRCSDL

[4] = Table 10, pure compounds, replicating Mtb, read-out: MIC (Mtb-rep)

CCC(C)/C=C(C)/C=C/C1=CC2=C(Cl)C(=O)C(C)(OC(C)=O)C(=O)C2=CN1CCCC(=O)O (stereo not drawn) [Isochromophione IX, isochromophilone IX]
MIC, inhibition against MRSA (MRSA): 50 mg/L (≈ 105 µM)

CC[C@H](C)/C=C(C)/C=C/C1=CC2=C(Cl)C(=O)[C@](C)(OC(C)=O)C(=O)C2=CN1CCO [EtOAc-O-7, Isochromophilone VI]
IC50 ([1]; J774): 200 mg/L (≈ 461 µM) | IC50 ([1]; J774, read-out: IC50 (J774)): ~200 mg/L (≈ 461 µM) | cytotoxicity (in words) ([1]; conclusion b210, J774): low cytotoxicity | selectivity index (SI) ([2]; IC50 (J774) over MIC (Mtb)): 10.78 | MIC [2, 4]: 18.6 mg/L (≈ 42.9 µM) | MIC ([2]; text b208, FIG. 11, replicating Mtb, read-out: MIC): 18 mg/L (≈ 41.5 µM) | bioactivity against replicating Mtb (in words) ([2]; conclusion b210): promising bioactivity | activity against S. pyogenes (S. pyogenes): bioactivity | activity against S. typhimurium (S. typhimurium): bioactivity

C[C@@H]1CCC[C@H](O)CCCc2cc(O)cc(O)c2C(=O)O1 [(3R,7R)-7-hydroxy-de-O-methyllasiodiplodin]
IC50 (α-glucosidase): 25.8 µM

CC[C@H](C)/C=C(C)/C=C/C(=O)Cc1cc(O)c(C)c(O)c1C=O [EtOAc-D, 2,4-dihyroxy-6-(5,7-dimethyl-2-oxo-trans-3-trans-5-nonadienyl)-3-methylbenzaldehyde]
IC50 ([1]; J774, read-out: IC50 (J774)): ~200 mg/L (≈ 632 µM) | MIC ([2]; read-out: MIC (Mtb-rep)): ~50 mg/L (≈ 158 µM) | effect on exposed zebrafish embryos (zebrafish embryos): severely impaired heart morphology and curved trunk

C[C@@H]1CC(=O)CCCCCc2cc(O)cc(O)c2C(=O)O1 [(3R)-5-oxo-de-O-methyllasiodiplodin]
IC50 (α-glucosidase): 54.6 µM

COc1cc2c(c(O)c1C)COC2=O [EtOAc-F-8-3, 4-hydroxy-6-methoxy-5-methyl-1(3H)-isobenzofuranone]
MIC [2, 4]: 200 mg/L (≈ 1030 µM) | M. abscessus (M. abscessus (Mab)): 200 µg/mL

C/C=C(/C(=O)O)N1C(=O)C=C(C)C1=O [EtOAc-G-4, pencolide]
inhibition of C. albicans (C. albicans): inhibition | MIC [2, 4]: 50 mg/L (≈ 256 µM) | inhibition of E. co/i (E. co/i): inhibition | inhibition of S. aureus (S. aureus): inhibition | activity against S. pyogenes (S. pyogenes): inhibition | M. abscessus (M. abscessus (Mab)): 100 µg/mL | activity against S. typhimurium (S. typhimurium): inhibition

COc1cc(CC(=O)CO)c(C=O)c(O)c1C [EtOAc-M-6-3]
MIC [2, 4]: 50 mg/L (≈ 210 µM) | M. abscessus (M. abscessus (Mab)): 100 µg/mL

COc1ccc(-c2cc3c(c(=O)o2)C[C@]2(O)[C@@]4(C)CCC(=O)C(C)(C)[C@]4(O)CC[C@@]2(C)O3)cc1 [terreulactone C]
IC50 [3]: 0.028 µM
